Assay results from ChEMBL document CHEMBL3991601, “The target landscape of clinical kinase drugs” (Science, 2017).
Activity calls are given as the source filed them. Cut-off read from the data, not from the text of the source, for most assays here: actives have a measured Kd and inactives only a lower limit.

Each compound was assayed against TRAF2 and NCK-interacting protein kinase (Homo sapiens, UniProt Q9UKE5).
Note: in the data inactive means no Kd found up to 30 µM.

Sequence of TRAF2 and NCK-interacting protein kinase (Q9UKE5 whole entry): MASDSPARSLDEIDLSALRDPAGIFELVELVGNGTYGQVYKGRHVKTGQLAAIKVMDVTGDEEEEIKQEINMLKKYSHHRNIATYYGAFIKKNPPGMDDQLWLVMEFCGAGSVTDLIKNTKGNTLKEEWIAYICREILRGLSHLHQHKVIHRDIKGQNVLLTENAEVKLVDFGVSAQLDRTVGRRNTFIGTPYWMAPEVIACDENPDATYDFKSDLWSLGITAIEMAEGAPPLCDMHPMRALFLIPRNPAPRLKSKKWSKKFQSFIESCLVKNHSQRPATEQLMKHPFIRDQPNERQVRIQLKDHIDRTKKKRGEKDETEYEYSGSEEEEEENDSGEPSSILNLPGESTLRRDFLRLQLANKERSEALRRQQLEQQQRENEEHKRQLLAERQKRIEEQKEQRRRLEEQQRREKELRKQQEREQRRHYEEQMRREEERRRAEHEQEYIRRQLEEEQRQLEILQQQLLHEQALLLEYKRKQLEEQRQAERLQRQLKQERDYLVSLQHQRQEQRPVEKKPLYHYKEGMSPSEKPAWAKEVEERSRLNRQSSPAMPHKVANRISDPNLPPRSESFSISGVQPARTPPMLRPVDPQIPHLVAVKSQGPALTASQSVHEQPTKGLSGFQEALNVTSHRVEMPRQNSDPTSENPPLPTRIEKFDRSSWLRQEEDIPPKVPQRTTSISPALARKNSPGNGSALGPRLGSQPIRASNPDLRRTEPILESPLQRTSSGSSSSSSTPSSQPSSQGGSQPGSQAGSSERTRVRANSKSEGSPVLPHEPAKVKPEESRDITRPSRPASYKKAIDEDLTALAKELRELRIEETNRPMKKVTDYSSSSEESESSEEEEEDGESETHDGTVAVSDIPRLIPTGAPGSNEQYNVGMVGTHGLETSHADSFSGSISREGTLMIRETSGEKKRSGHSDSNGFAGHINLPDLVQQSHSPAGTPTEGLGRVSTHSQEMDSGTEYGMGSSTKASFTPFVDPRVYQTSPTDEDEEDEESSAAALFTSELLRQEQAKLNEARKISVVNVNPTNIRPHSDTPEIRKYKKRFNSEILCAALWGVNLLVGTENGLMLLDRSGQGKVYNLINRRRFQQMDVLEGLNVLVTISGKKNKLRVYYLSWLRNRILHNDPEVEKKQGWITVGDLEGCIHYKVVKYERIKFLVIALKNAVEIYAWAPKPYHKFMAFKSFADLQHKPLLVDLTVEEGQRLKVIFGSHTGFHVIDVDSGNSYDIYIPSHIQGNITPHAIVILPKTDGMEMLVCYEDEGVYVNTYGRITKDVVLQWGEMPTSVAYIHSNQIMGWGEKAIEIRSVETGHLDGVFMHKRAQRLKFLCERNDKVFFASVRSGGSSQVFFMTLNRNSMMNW

SMILES | Kd
N[C@@H]1CCCN(c2c(/C=C3\SC(=O)NC3=O)cccc2-c2ccccc2)C1 | > 30 µM (inactive)
Cc1ccc(S(=O)(=O)Nc2nc3ccccc3nc2Nc2ccc3nsnc3c2)cc1 | > 30 µM (inactive)
CN1CC[C@@H](c2c(O)cc(O)c3c(=O)cc(-c4ccccc4Cl)oc23)[C@@H]1CO | > 30 µM (inactive)
Cc1cc(-c2cc(O)ccc2Cl)cc2nnc(Nc3ccc(OCCN4CCCC4)cc3)nc12 | > 30 µM (inactive)
CCN1CCN(Cc2ccc(-c3cc4c(N[C@H](C)c5ccccc5)ncnc4[nH]3)cc2)CC1 [AEE-788] | > 30 µM (inactive)
Cn1ncc(Cl)c1-c1cc(C(=O)N[C@H](CN)Cc2cccc(F)c2)sc1Cl [AFURESERTIB] | > 30 µM (inactive)

Each compound was assayed against GTP-binding nuclear protein Ran (Homo sapiens, UniProt P62826).

SMILES | Kd
N[C@@H]1CCCN(c2c(/C=C3\SC(=O)NC3=O)cccc2-c2ccccc2)C1 | > 30 µM (inactive)
Cc1ccc(S(=O)(=O)Nc2nc3ccccc3nc2Nc2ccc3nsnc3c2)cc1 | > 30 µM (inactive)
CN1CC[C@@H](c2c(O)cc(O)c3c(=O)cc(-c4ccccc4Cl)oc23)[C@@H]1CO | > 30 µM (inactive)
Cc1cc(-c2cc(O)ccc2Cl)cc2nnc(Nc3ccc(OCCN4CCCC4)cc3)nc12 | > 30 µM (inactive)
CCN1CCN(Cc2ccc(-c3cc4c(N[C@H](C)c5ccccc5)ncnc4[nH]3)cc2)CC1 [AEE-788] | > 30 µM (inactive)

What follows are compounds tested against T1, Scaffold protein ILK (Homo sapiens, UniProt Q13418).
T1 sequence (Q13418 whole entry): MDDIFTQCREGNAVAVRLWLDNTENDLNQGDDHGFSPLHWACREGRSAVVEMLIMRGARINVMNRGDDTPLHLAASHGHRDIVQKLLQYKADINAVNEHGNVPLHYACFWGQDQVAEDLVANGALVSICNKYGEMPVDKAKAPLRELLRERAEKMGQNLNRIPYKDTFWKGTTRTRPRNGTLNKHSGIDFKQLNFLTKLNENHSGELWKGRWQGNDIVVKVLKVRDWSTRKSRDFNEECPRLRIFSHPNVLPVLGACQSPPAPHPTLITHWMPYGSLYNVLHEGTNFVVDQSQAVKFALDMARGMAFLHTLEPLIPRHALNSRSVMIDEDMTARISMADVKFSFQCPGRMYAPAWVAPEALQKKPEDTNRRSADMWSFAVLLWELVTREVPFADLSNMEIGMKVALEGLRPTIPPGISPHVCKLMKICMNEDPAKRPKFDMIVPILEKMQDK

SMILES | Kd
N[C@@H]1CCCN(c2c(/C=C3\SC(=O)NC3=O)cccc2-c2ccccc2)C1 | > 30 µM (inactive)
CN1CC[C@@H](c2c(O)cc(O)c3c(=O)cc(-c4ccccc4Cl)oc23)[C@@H]1CO | > 30 µM (inactive)
Cc1cc(-c2cc(O)ccc2Cl)cc2nnc(Nc3ccc(OCCN4CCCC4)cc3)nc12 | > 30 µM (inactive)
CCN1CCN(Cc2ccc(-c3cc4c(N[C@H](C)c5ccccc5)ncnc4[nH]3)cc2)CC1 [AEE-788] | > 30 µM (inactive)
Cn1ncc(Cl)c1-c1cc(C(=O)N[C@H](CN)Cc2cccc(F)c2)sc1Cl [AFURESERTIB] | > 30 µM (inactive)

These compounds were tested against T2, Ephrin type-B receptor 6 (Homo sapiens, UniProt O15197).
T2 sequence (O15197 whole entry): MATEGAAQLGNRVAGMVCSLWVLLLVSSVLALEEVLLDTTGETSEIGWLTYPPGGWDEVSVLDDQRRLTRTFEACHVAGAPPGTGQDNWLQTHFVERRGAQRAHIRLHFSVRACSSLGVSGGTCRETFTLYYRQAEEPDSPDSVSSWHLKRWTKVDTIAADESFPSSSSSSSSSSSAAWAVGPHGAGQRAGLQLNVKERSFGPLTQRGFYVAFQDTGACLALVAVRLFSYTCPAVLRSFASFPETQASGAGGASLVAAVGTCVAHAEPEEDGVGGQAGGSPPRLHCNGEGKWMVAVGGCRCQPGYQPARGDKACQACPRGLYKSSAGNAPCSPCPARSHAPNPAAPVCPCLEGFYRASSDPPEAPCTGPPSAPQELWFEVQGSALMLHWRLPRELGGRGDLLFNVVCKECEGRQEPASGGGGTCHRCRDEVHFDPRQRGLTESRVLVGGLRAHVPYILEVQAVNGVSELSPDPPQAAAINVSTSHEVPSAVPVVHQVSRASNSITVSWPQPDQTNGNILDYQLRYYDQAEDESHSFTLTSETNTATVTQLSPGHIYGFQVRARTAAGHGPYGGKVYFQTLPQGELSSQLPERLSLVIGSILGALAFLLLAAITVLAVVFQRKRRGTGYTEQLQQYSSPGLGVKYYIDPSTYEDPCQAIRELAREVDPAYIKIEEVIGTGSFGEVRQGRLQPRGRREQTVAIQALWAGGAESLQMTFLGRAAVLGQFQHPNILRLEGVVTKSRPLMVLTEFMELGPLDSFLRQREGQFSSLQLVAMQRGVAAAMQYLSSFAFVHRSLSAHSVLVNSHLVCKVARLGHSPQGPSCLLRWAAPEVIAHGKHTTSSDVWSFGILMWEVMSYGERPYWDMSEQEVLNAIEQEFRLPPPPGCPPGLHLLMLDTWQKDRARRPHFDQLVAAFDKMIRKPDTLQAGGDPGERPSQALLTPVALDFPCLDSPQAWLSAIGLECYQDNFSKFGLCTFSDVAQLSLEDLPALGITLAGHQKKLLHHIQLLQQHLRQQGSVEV

SMILES | Kd
N[C@@H]1CCCN(c2c(/C=C3\SC(=O)NC3=O)cccc2-c2ccccc2)C1 | > 30 µM (inactive)
Cc1ccc(S(=O)(=O)Nc2nc3ccccc3nc2Nc2ccc3nsnc3c2)cc1 | > 30 µM (inactive)
CN1CC[C@@H](c2c(O)cc(O)c3c(=O)cc(-c4ccccc4Cl)oc23)[C@@H]1CO | > 30 µM (inactive)
Cc1cc(-c2cc(O)ccc2Cl)cc2nnc(Nc3ccc(OCCN4CCCC4)cc3)nc12 | 0.0006 µM (active)
CCN1CCN(Cc2ccc(-c3cc4c(N[C@H](C)c5ccccc5)ncnc4[nH]3)cc2)CC1 [AEE-788] | > 30 µM (inactive)
Cn1ncc(Cl)c1-c1cc(C(=O)N[C@H](CN)Cc2cccc(F)c2)sc1Cl [AFURESERTIB] | > 30 µM (inactive)

Each compound was assayed against T3, Mitogen-activated protein kinase kinase kinase 3 (Homo sapiens, UniProt Q99759).
T3 sequence (Q99759 whole entry): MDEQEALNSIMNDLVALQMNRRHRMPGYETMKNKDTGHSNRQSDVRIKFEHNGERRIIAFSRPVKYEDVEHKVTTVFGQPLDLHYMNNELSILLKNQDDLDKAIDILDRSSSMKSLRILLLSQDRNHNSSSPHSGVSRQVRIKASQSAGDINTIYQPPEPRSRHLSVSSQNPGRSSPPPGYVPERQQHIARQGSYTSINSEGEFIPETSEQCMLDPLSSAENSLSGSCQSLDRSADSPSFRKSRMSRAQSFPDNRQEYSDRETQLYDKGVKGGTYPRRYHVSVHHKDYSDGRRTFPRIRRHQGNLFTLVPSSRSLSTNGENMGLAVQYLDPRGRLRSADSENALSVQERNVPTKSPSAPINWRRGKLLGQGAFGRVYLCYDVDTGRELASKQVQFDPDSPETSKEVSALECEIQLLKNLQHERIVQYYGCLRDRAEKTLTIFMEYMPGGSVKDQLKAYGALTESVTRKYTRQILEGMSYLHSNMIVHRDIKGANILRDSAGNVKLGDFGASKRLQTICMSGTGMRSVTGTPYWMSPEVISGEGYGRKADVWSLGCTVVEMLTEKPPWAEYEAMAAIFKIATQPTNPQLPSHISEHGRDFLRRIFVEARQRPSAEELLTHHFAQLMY

SMILES | Kd
N[C@@H]1CCCN(c2c(/C=C3\SC(=O)NC3=O)cccc2-c2ccccc2)C1 | > 30 µM (inactive)
Cc1ccc(S(=O)(=O)Nc2nc3ccccc3nc2Nc2ccc3nsnc3c2)cc1 | > 30 µM (inactive)
CN1CC[C@@H](c2c(O)cc(O)c3c(=O)cc(-c4ccccc4Cl)oc23)[C@@H]1CO | > 30 µM (inactive)
Cc1cc(-c2cc(O)ccc2Cl)cc2nnc(Nc3ccc(OCCN4CCCC4)cc3)nc12 | > 30 µM (inactive)
CCN1CCN(Cc2ccc(-c3cc4c(N[C@H](C)c5ccccc5)ncnc4[nH]3)cc2)CC1 [AEE-788] | > 30 µM (inactive)
Cn1ncc(Cl)c1-c1cc(C(=O)N[C@H](CN)Cc2cccc(F)c2)sc1Cl [AFURESERTIB] | > 30 µM (inactive)

These compounds were tested against Cyclin-dependent kinase 12 (Homo sapiens, UniProt Q9NYV4).
Sequence of Cyclin-dependent kinase 12 (Q9NYV4 whole entry): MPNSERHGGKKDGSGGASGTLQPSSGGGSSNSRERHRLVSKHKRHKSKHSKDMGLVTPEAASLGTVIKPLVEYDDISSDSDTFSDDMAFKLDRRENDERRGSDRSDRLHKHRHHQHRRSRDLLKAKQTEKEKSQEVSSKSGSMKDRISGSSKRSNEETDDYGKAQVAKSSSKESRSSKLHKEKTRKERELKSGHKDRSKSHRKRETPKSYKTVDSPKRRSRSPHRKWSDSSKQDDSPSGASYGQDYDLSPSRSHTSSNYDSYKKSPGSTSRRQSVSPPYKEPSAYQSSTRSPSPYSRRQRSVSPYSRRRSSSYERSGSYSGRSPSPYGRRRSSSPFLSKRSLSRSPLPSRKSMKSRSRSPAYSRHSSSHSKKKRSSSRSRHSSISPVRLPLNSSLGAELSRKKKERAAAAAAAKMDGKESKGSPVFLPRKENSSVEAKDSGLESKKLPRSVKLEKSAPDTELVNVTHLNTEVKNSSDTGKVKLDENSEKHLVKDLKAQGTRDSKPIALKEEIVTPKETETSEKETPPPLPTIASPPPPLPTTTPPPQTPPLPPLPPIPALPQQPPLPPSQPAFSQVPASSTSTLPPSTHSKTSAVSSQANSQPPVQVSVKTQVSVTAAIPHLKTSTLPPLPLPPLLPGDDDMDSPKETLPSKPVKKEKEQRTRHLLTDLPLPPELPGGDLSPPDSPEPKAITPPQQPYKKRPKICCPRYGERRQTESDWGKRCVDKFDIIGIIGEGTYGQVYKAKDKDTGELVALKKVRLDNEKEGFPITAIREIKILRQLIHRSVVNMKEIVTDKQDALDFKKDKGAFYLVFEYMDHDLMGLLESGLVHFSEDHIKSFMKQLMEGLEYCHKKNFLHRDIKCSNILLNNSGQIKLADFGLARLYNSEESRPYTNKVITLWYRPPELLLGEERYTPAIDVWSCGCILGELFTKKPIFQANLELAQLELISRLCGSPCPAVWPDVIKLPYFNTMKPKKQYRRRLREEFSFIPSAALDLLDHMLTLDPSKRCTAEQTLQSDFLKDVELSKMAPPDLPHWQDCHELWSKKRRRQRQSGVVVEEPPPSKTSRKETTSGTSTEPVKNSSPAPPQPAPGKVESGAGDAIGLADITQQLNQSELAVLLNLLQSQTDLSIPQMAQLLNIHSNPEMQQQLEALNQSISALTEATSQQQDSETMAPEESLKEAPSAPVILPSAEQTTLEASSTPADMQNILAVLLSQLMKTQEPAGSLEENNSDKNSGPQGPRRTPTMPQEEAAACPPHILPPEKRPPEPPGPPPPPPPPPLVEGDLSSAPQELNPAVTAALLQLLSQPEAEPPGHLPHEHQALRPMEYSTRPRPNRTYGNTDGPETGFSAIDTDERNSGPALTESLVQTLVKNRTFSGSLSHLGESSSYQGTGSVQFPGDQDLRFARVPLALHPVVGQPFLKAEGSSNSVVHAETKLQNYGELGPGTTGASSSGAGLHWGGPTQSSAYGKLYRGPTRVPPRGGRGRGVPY

SMILES | Kd
N[C@@H]1CCCN(c2c(/C=C3\SC(=O)NC3=O)cccc2-c2ccccc2)C1 | > 30 µM (inactive)
Cc1ccc(S(=O)(=O)Nc2nc3ccccc3nc2Nc2ccc3nsnc3c2)cc1 | > 30 µM (inactive)
CN1CC[C@@H](c2c(O)cc(O)c3c(=O)cc(-c4ccccc4Cl)oc23)[C@@H]1CO | 3.16 µM (active)
Cc1cc(-c2cc(O)ccc2Cl)cc2nnc(Nc3ccc(OCCN4CCCC4)cc3)nc12 | > 30 µM (inactive)
CCN1CCN(Cc2ccc(-c3cc4c(N[C@H](C)c5ccccc5)ncnc4[nH]3)cc2)CC1 [AEE-788] | > 30 µM (inactive)
Cn1ncc(Cl)c1-c1cc(C(=O)N[C@H](CN)Cc2cccc(F)c2)sc1Cl [AFURESERTIB] | > 30 µM (inactive)

What follows are compounds tested against DnaJ homolog subfamily A member 1 (Homo sapiens, UniProt P31689).
Sequence of DnaJ homolog subfamily A member 1 (P31689 whole entry): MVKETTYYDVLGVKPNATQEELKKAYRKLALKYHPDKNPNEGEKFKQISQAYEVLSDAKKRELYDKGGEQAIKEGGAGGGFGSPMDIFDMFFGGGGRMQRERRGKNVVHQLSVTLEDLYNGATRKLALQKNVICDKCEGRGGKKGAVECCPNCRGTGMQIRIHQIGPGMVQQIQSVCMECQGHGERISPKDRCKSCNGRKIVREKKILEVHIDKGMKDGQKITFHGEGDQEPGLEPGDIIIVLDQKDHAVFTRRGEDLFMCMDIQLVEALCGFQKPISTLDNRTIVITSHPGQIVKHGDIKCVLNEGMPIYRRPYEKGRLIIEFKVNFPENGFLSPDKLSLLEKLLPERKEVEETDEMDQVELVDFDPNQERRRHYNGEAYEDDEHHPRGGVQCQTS

SMILES | Kd
N[C@@H]1CCCN(c2c(/C=C3\SC(=O)NC3=O)cccc2-c2ccccc2)C1 | > 30 µM (inactive)
Cc1ccc(S(=O)(=O)Nc2nc3ccccc3nc2Nc2ccc3nsnc3c2)cc1 | > 30 µM (inactive)
CN1CC[C@@H](c2c(O)cc(O)c3c(=O)cc(-c4ccccc4Cl)oc23)[C@@H]1CO | > 30 µM (inactive)
Cc1cc(-c2cc(O)ccc2Cl)cc2nnc(Nc3ccc(OCCN4CCCC4)cc3)nc12 | > 30 µM (inactive)
CCN1CCN(Cc2ccc(-c3cc4c(N[C@H](C)c5ccccc5)ncnc4[nH]3)cc2)CC1 [AEE-788] | > 30 µM (inactive)
Cn1ncc(Cl)c1-c1cc(C(=O)N[C@H](CN)Cc2cccc(F)c2)sc1Cl [AFURESERTIB] | > 30 µM (inactive)
